# Earlier results, collected in patent US20050118266A1, “Sustained/controlled release solid formulation as a novel drug delivery system with reduced risk of dose dumping” (priority 2002, published 2005).
# Details: according to Biopharmaceutics Classification System
SMILES,BCS class,solubility (BCS category)
O=C(O)Cc1ccccc1Nc1c(Cl)cccc1Cl [diclofenac sodium],Class II,poorly soluble
NCC1(CC(=O)O)CCCCC1 [gabapentin],–,highly soluble
CC[C@H](C)C(=O)O[C@H]1C[C@H](O)C=C2C=C[C@H](C)[C@H](CC[C@@H](O)C[C@@H](O)CC(=O)O)[C@H]21 [pravastatin sodium],–,highly soluble
CNC(=C[N+](=O)[O-])NCCSCc1ccc(CN(C)C)o1 [ranitidine],–,highly soluble
Cc1cccc(Nc2ccncc2S(=O)(=O)NC(=O)NC(C)C)c1 [torasemide],Class I,highly soluble
